BindingDB's records for doi:10.1021/jm00163a034 (Eisai, 1990)
Square brackets hold non-standard residues; d marks the D form. Peptide text beside a SMILES is read from it. Phe(4-NO2) = N[CH](Cc1ccc([N+](=O)[O-])cc1)C(=O)O; NMeY = CN[CH](Cc1ccc(O)cc1)C(=O)O; Sar = CNCC(=O)O

Experiments:
[1] = Binding affinities against Opioid receptor delta 1 of guinea pig brain membrane using [3H]DPDPE as the radioligand using competition binding assays.
[2] = Binding affinities against Opioid receptor kappa 1 of guinea pig brain membrane using [3H]U69,593 as the radioligand using competition binding assays.
[3] = Evaluated for inhibitory activity against Opioid receptor kappa 1 of rabbit vas deferens (RVD)

Compound	Ki [1] [µM]	Ki [2] [µM]	IC50 [3] [µM]
CCNC(=O)[C@@H](CC(C)C)NC(=O)[C@H](CCCN=C(N)N)N(C)C(=O)[C@H](CCCN=C(N)N)NC(=O)[C@@H]1CSSC[C@@H](NC(=O)[C@@H](N)Cc2ccc(O)cc2)C(=O)NCC(=O)N[C@@H](Cc2ccccc2)C(=O)N1 [13-[2-Amino-3-(4-hydroxy-phenyl)-propionylamino]-7-benzyl-6,9,12-trioxo-1,2-dithia-5,8,11-triaza-cyclotetradecane-4-carboxylic acid (1-{[1-(1-ethylcarbamoyl-3-methyl-butylcarbamoyl)-4-guanidino-butyl]-methyl-carbamoyl}-4-guanidino-butyl)-amide]	0.0016	0.003	–
CCNC(=O)[C@@H](CC(C)C)NC(=O)[C@H](CCCNC(=N)N)N(C)C(=O)[C@H](CCCNC(=N)N)NC(=O)[C@H](CC(C)C)NC(=O)[C@H](Cc1ccccc1)NC(=O)CNC(=O)CNC(=O)[C@H](Cc1ccc(O)cc1)NC [2-[2-(2-{2-[3-(4-Hydroxy-phenyl)-2-methylamino-propionylamino]-acetylamino}-acetylamino)-3-phenyl-propionylamino]-4-methyl-pentanoic acid (1-{[1-(1-ethylcarbamoyl-3-methyl-butylcarbamoyl)-4-guanidino-butyl]-methyl-carbamoyl}-4-guanidino-butyl)-amide]	0.027	0.0019	0.0026
CC(C)C[C@H](NC(=O)[C@H](CCCNC(=N)N)NC(=O)[C@H](CCCNC(=N)N)NC(=O)[C@H](CC(C)C)NC(=O)[C@H](Cc1ccccc1)NC(=O)CNC(=O)CN(C)C(=O)[C@@H](N)Cc1ccc(O)cc1)C(N)=O [2-{2-[2-(2-{2-[2-(2-{[2-Amino-3-(4-hydroxy-phenyl)-propionyl]-methyl-amino}-acetylamino)-acetylamino]-3-phenyl-propionylamino}-4-methyl-pentanoylamino)-5-guanidino-pentanoylamino]-5-guanidino-pentanoylamino}-4-methyl-pentanoic acid amide] (H-Y[Sar]GFLRRL-NH2)	–	–	0.738
CN[C@@H](Cc1ccc(O)cc1)C(=O)NCC(=O)NCC(=O)N[C@@H](Cc1ccccc1)C(=O)N(C)[C@@H](CC(C)C)C(=O)N[C@@H](CCCNC(=N)N)C(=O)N[C@@H](CCCNC(=N)N)C(=O)N[C@H](CC(C)C)C(N)=O [2-{5-Guanidino-2-[5-guanidino-2-(2-{[2-(2-{2-[3-(4-hydroxy-phenyl)-2-methylamino-propionylamino]-acetylamino}-acetylamino)-3-phenyl-propionyl]-methyl-amino}-4-methyl-pentanoylamino)-pentanoylamino]-pentanoylamino}-4-methyl-pentanoic acid amide]	–	–	0.189
CC[C@H](C)[C@H](NC(=O)[C@H](CCCNC(=N)N)NC(=O)[C@H](CCCNC(=N)N)NC(=O)[C@H](CC(C)C)NC(=O)[C@H](Cc1ccccc1)NC(=O)CNC(=O)CNC(=O)[C@@H](N)Cc1ccc(O)cc1)C(N)=O [2-[2-(2-{2-[2-(2-{2-[2-Amino-3-(4-hydroxy-phenyl)-propionylamino]-acetylamino}-acetylamino)-3-phenyl-propionylamino]-4-methyl-pentanoylamino}-5-guanidino-pentanoylamino)-5-guanidino-pentanoylamino]-3-methyl-pentanoic acid amide]	0.024	0.0012	0.017
CNC(Cc1ccc(O)cc1)C(=O)NCC(=O)NCC(=O)NC(Cc1ccc([N+](=O)[O-])cc1)C(=O)NC(CC(C)C)C(=O)NC(CCCNC(=N)N)C(=O)NC(CCCNC(=N)N)C(=O)NC(CC(C)C)C(N)=O (centres undefined) [2-[5-Guanidino-2-(5-guanidino-2-{2-[2-(2-{2-[3-(4-hydroxy-phenyl)-2-methylamino-propionylamino]-acetylamino}-acetylamino)-3-(4-nitro-phenyl)-propionylamino]-4-methyl-pentanoylamino}-pentanoylamino)-pentanoylamino]-4-methyl-pentanoic acid amide] (H-[NMeY]GG[Phe(4-NO2)]LRRL-NH2; configuration not given here)	0.029	0.00077	–
CCNC(=O)[C@@H](CC(C)C)NC(=O)[C@H](CCCN=C(N)N)N(C)C(=O)[C@H](CCCN=C(N)N)NC(=O)[C@H](CC(C)C)NC(=O)[C@H](Cc1ccc([N+](=O)[O-])cc1)NC(=O)CNC(=O)CNC(=O)[C@H](Cc1ccc(O)cc1)NC [2-{5-Guanidino-2-[(5-guanidino-2-{2-[2-(2-{2-[3-(4-hydroxy-phenyl)-2-methylamino-propionylamino]-acetylamino}-acetylamino)-3-(4-nitro-phenyl)-propionylamino]-4-methyl-pentanoylamino}-pentanoyl)-methyl-amino]-pentanoylamino}-4-methyl-pentanoic acidN-ethyl amide]	0.018	0.0039	–
CN[C@@H](Cc1ccc(O)cc1)C(=O)NCC(=O)NCC(=O)N[C@@H](Cc1ccccc1)C(=O)N[C@@H](CC(C)C)C(=O)N[C@@H](CCCNC(=N)N)C(=O)N(C)[C@@H](CCCNC(=N)N)C(=O)N[C@H](CC(C)C)C(N)=O [2-{5-Guanidino-2-[(5-guanidino-2-{2-[2-(2-{2-[3-(4-hydroxy-phenyl)-2-methylamino-propionylamino]-acetylamino}-acetylamino)-3-phenyl-propionylamino]-4-methyl-pentanoylamino}-pentanoyl)-methyl-amino]-pentanoylamino}-4-methyl-pentanoic acid amide]	0.054	0.0014	–
CN[C@@H](Cc1ccc(O)cc1)C(=O)NCC(=O)NNC(=O)N[C@@H](Cc1ccccc1)C(=O)N[C@@H](CC(C)C)C(=O)N[C@@H](CCCNC(=N)N)C(=O)N[C@@H](CCCNC(=N)N)C(=O)N[C@H](CC(C)C)C(N)=O	–	–	0.152
CN[C@@H](Cc1ccc(O)cc1)C(=O)NCC(=O)NCC(=O)N[C@@H](Cc1ccccc1)C(=O)N[C@@H](CC(C)C)C(=O)N(C)[C@@H](CCCN=C(N)N)C(=O)N[C@@H](CCCN=C(N)N)C(=O)N[C@H](CC(C)C)C(N)=O [2-{5-Guanidino-2-[5-guanidino-2-({2-[2-(2-{2-[3-(4-hydroxy-phenyl)-2-methylamino-propionylamino]-acetylamino}-acetylamino)-3-phenyl-propionylamino]-4-methyl-pentanoyl}-methyl-amino)-pentanoylamino]-pentanoylamino}-4-methyl-pentanoic acid amide]	–	–	0.0011
CN[C@@H](Cc1ccc(O)cc1)C(=O)NCC(=O)NCC(=O)N[C@@H](Cc1ccccc1)C(=O)N[C@H](C)C(=O)N[C@@H](CCCNC(=N)N)C(=O)N[C@@H](CCCNC(=N)N)C(=O)N[C@H](CC(C)C)C(N)=O [2-[5-Guanidino-2-(5-guanidino-2-{2-[2-(2-{2-[3-(4-hydroxy-phenyl)-2-methylamino-propionylamino]-acetylamino}-acetylamino)-3-phenyl-propionylamino]-propionylamino}-pentanoylamino)-pentanoylamino]-4-methyl-pentanoic acid amide]	–	–	13
